Assay results from US9566290B2, “Boron-containing small molecules” (Anacor Pharmaceuticals, Inc., priority 2005, dated 2017).

Experiment: Nail penetration, 14-day dosing of radiolabeled compound (Hui protocol)
Type: in vitro ADME
Method: Two nail penetration studies were performed based on the protocol in Hui et al., Journal of Pharmaceutical Sciences, 91(1): 189-195 (2002) (“Hui protocol”). The purpose of this study was to determine and compare the penetration and distribution of C10 in vehicle into the human nail plate in vitro relative to 8% ciclopirox w/w in commercial lacquer (Penlac®).
The study was composed of two groups. The compositions (weight %) of the dosage formulations are as follows: […]
Healthy human finger nail plates were collected from adult human cadavers and stored in a closed container at 0-4° C. Before the experiment, the nail plates were gently washed with normal saline to remove any contamination, then re-hydrated by placing them for three hours on a cloth wetted with normal saline. The nail samples were randomly selected into four groups.
Radioactivity of each group is approximately 0.19±0.01 and 0.22±0.03 μCi/10 μL solutions respectively, for ^14C—C10 (group A), and ^14C-ciclopirox (group C).
Surface washing was started in morning 10 min prior to next dosing, the surface of the nail was washed with cotton tips in a cycle, as follows:
A Teflon one-chamber diffusion cell (PermeGear, Inc., Hellertown, Pa.) was used to hold each nail. To approximate physiological conditions, a small cotton ball wetted with 0.1 mL normal saline was placed in the chamber to serve as a nail bed and provide moisture for the nail plate. Every 3 days, 0.1 mL normal saline was injected through the inlet into the chamber to keep the cotton ball wet. The nail plate was placed on a ledge inside the receptor (1.0 cm in diameter and 0.5 cm high). The ventral (inner) surface of the nail was placed face down and rested on the wet cotton ball. The cells were placed on a platform in a large glass holding tank filled with saturated sodium phosphate solution to keep the cells at a constant humidity of 40%.
After completion of the incubation phase, the nail plate was transferred from the diffusion cell to a clean copper nail holder for sampling process. The nail plate was inverted so that the ventral (nail bed) surface now faced up and the dorsal (outer) dosed surfaced faced down. The copper nail holder has an opening as it sits on top of the stage. When the sampling process initiated, the coarse adjustment was adjusted to move the position of the stage until the nail plate was just touching the tip of the cutter. Then the drill was turned on and the fine adjustment was turned to push the stage closer to the drill, removing a nail core sample. After the above process, approximate 0.40-0.50 mm in depth and 7.9 mm in diameter nail pulverized samples were harvested from the center of the ventral (nail bed) surface of the nail.
The powdered nail samples were collected into a glass scintillation vial and weighted. Aliquots of 5.0 mL Packard soluene-350 (Packard Instrument Company, Meriden, Conn.) was added to the scintillation vial to dissolve the powder. The upper part, the intermediate and dorsal layers of the center of the nail, including the area of application of the dose was cut in the same diameter as the sampled area and was then placed into a glass scintillation vial with 5.0 mL packard soluene-350. The rest of the nail was also placed in a glass scintillation vial with 5.0 mL packard soluene-350.
All radioactivity measurements were conducted with a Model 1500 Liquid Scintillation Counter (Packard Instrument Company, Downer Grove, Ill.). The counter was audited for accuracy using sealed samples of quenched and unquenched standards as detailed by the instrument manual. The ^14C counting efficiency is equal to or greater than 95%. All nail samples pre-treated with packard soluene-350 were incubated at 40° C. for 48 hours followed by the addition of 10 mL scintillation cocktail (HIONIC-FLUOR, Packard Instrument Company, Meriden, Conn.). […]

**Q.** What does the source list for `OB1OCc2cc(F)ccc21` [C10, 5-fluorobenzo[c][1,2]oxaborol-1(3H)-ol]?
**A.** absolute amount of drug equivalent per cotton ball sample versus ciclopirox: significantly higher; amount of equivalent in ventral/intermediate center of the nail layer and cotton ball supporting bed versus group C (ciclopirox): statistically higher; weight normalized concentration of drug equivalent in nail samples versus ciclopirox equivalent (dorsal/intermediate center, ventral/intermediate center and remainder nail, 14-day treatment, p≦0.002): significantly higher; Cumulative radioactivity recoveries of carbon-14 (human, 14 day): 88±9.21% of applied dose; difference of the two test chemicals in cotton ball supporting bed (C10 versus ciclopirox) (human, 14 day): 250 times
